“And” between values parts separate entries of the source, which are not always exact repeats. Identical values can stand only once. One block for each molecule: values may come before it.
How the values were obtained:
HPAF-II cells = assay: soft agar colony formation assay, HPAF-II cells; format: cell-based; settings: for Colony count: HPAF-II, duplicate wells
Experimental: The IC50 and EC50 values for each combination partner (a) and (b) with the specific cell lines are determined from the response plot. A dose-response assay for each combination partner and the combination at different concentrations based on the IC50 values of each combination partner was performed. Computed EC50-EC95 values were then generated by a software (as disclosed herein) based on the drug concentration and the respective colony growth numbers.
6. Cell lines used and number of cells seeded per well
(1) Base Layer—0.6% Agar per 300 μL per well.
Microwave the agar for 1-2 min so that it is completely melted. Add 5.4 ml of the melted agar into 21.6 ml of pre-warmed media (All media and agar preparation is made in excess for 2.5 plates). Aliquot 300 μl of the suspension into each well, avoiding the first and last columns of the plates. Fill the first and last columns of wells with 500 μl of sterile water or phosphate buffered saline. Incubate the plates in 37° C. incubator for 45 min-1 hr to allow agar to solidify.
(2) Middle Layer— 0.3% Agar plus corresponding number of cells per well
Trypsinize the adherent cells and suspend them in 5 ml of media. Determine the number of cells in the suspension and calculate the volume of cell suspension required for seeding. Mix the agar and media together first, excluding the volume of cell suspension. Add the cell suspension last into the mixture. Mix well and aliquot 250 μl into each well containing the base layer. Incubate the plates in a 37° C. incubator for 1-1.5 hrs to allow the agar to solidify.
Prepare the required concentration of compounds based on the IC50 values of each drug.
(Pre-determine the IC50 values for each drug with the corresponding cell-line using a dose-response assay)
Row A& B: Aliquot 250 μl of diluted Drug A per well
Row C&D: Aliquot 250 μl of diluted Drug B per well
Row E& F: Aliquot 250 μl of diluted Drug A and B mixed at 1:1 ratio for each well
Assay Results Analysis Method • 1. Score the colonies after 2 to 3 weeks depending on the colony forming status for different cell line. • 2. Before scoring the colonies, add 35 μl MTT (5 mg/ml) to the wells with cells and incubate at 37° C. for 2-3 hrs depending on the intensity of colour development. • 3. Once the colonies are stained, count the total number of colonies formed using the Oxford Optronix GelCount® instrument. • 4. Average the total number of colonies obtained for each drug dose point and represent it as a fraction over the control. This represents the fraction of colony growth. […] Incorporate the fraction of inhibition and the corresponding dose values into the Chou Talalay Software available online (http://www.combosyn.com/) to obtain the combination index values. • 6. The combination index values will give an indication as to whether the combined drugs are synergistic, antagonistic or additive in the treated cells, as shown in Table 2 below.
FIG. 4 illustrates of a dose-response assay plate containing HPAF-II cells (Test 1) after testing compounds at different concentrations based on the IC50 values of each compound. HPAF-II is a cell line established from pancreatic ductal adenocarcinoma (pancreatic cancer).

PA-TU-8988T cells = assay: soft agar colony formation assay, PA-TU-8988T cells; format: cell-based; settings: for IC50: PA-TU-8988T cells, pre-determined by dose-response assay; for Colony count: PA-TU-8988T, duplicate wells
Experimental: The IC50 and EC50 values for each combination partner (a) and (b) with the specific cell lines are determined from the response plot. A dose-response assay for each combination partner and the combination at different concentrations based on the IC50 values of each combination partner was performed. Computed EC50-EC95 values were then generated by a software (as disclosed herein) based on the drug concentration and the respective colony growth numbers. 6. Cell lines used and number of cells seeded per well [table] (1) Base Layer—0.6% Agar per 300 μL per well. Microwave the agar for 1-2 min so that it is completely melted. Add 5.4 ml of the melted agar into 21.6 ml of pre-warmed media (All media and agar preparation is made in excess for 2.5 plates). Aliquot 300 μl of the suspension into each well, avoiding the first and last columns of the plates. Fill the first and last columns of wells with 500 μl of sterile water or phosphate buffered saline. Incubate the plates in 37° C. incubator for 45 min-1 hr to allow agar to solidify. (2) Middle Layer— 0.3% Agar plus corresponding number of cells per well Trypsinize the adherent cells and suspend them in 5 ml of media. Determine the number of cells in the suspension and calculate the volume of cell suspension required for seeding. Mix the agar and media together first, excluding the volume of cell suspension. Add the cell suspension last into the mixture. Mix well and aliquot 250 μl into each well containing the base layer. Incubate the plates in a 37° C. incubator for 1-1.5 hrs to allow the agar to solidify. […] Prepare the required concentration of compounds based on the IC50 values of each drug. (Pre-determine the IC50 values for each drug with the corresponding cell-line using a dose-response assay) Row A& B: Aliquot 250 μl of diluted Drug A per well Row C&D: Aliquot 250 μl of diluted Drug B per well Row E& F: Aliquot 250 μl of diluted Drug A and B mixed at 1:1 ratio for each well Assay Results Analysis Method • 1. Score the colonies after 2 to 3 weeks depending on the colony forming status for different cell line. • 2. Before scoring the colonies, add 35 μl MTT (5 mg/ml) to the wells with cells and incubate at 37° C. for 2-3 hrs depending on the intensity of colour development. • 3. Once the colonies are stained, count the total number of colonies formed using the Oxford Optronix GelCount® instrument. • 4. Average the total number of colonies obtained for each drug dose point and represent it as a fraction over the control. This represents the fraction of colony growth. […] Incorporate the fraction of inhibition and the corresponding dose values into the Chou Talalay Software available online (http://www.combosyn.com/) to obtain the combination index values. • 6. The combination index values will give an indication as to whether the combined drugs are synergistic, antagonistic or additive in the treated cells, as shown in Table 2 below. FIG. 12 illustrates a dose-response assay plate containing PA-TU-8988T cells (Test 1) after testing compounds at different concentrations based on the IC50 values of each compound. […] is a cell line established from pancreatic adenocarcinoma (pancreatic cancer).

[1] = Test 1, 0.25x IC50: dose Olaparib 9.7975, Ex 1 0,001929, combination both 1:1
[2] = Test 1, 0.5x IC50: dose Olaparib 19.535, Ex 1 0.003883, combination both 1:1
[3] = Test 1, 1x IC50: dose Olaparib 39.19, Ex 1 0,007577, combination both 1:1
[4] = Test 1, 2x IC50: dose Olaparib 78.38, Ex 1 0.015354, combination both 1:1
[5] = Test 1, 4x IC50: dose Olaparib 156.76, Ex 1 0.030707, combination both 1:1
[6] = Test 2, 0.25x IC50: dose Olaparib 9.7975, Ex 1 0.001929, combination both 1:1
[7] = Test 2, 0.5x IC50: dose Olaparib 13.595, Ex 1 0.003838, combination both 1:1
[8] = Test 2, 1x IC50: dose Olaparib 39.19, Ex 1 0.007677, combination both 1:1
[9] = Test 2, 2x IC50: dose Olaparib 78.38, Ex 1 0.015354, combination both 1:1
[10] = Test 2, 4x IC50: dose Olaparib 156.76, Ex 1 0.030707, combination both 1:1
[11] = Test 1, 0.25x IC50: dose Olaparib 0.2525, Ex 1 0.275, combination both 1:1
[12] = Test 1, 0.5x IC50: dose Olaparib 0.505, Ex 1 0.55, combination both 1:1
[13] = Test 1, 1x IC50: dose Olaparib 1.01, Ex 1 1.1, combination both 1:1
[14] = Test 1, 2x IC50: dose Olaparib 2.02, Ex 1 2.2, combination both 1:1
[15] = Test 1, 4x IC50: dose Olaparib 4.04, Ex 1 4.4, combination both 1:1
[16] = Test 2, 0.25x IC50: dose Olaparib 0.2525, Ex 1 0.275, combination both 1:1
[17] = Test 2, 0.5x IC50: dose Olaparib 0.505, Ex 1 0.55, combination both 1:1
[18] = Test 2, 1x IC50: dose Olaparib 1.01, Ex 1 1.1, combination both 1:1
[19] = Test 2, 2x IC50: dose Olaparib 2.02, Ex 1 2.2, combination both 1:1
[20] = Test 2, 4x IC50: dose Olaparib 4.04, Ex 1 4.4, combination both 1:1

IC50 (HPAF-II cells; HPAF-II cells, pre-determined by dose-response assay): 0.0077 µM
IC50 (PA-TU-8988T cells): 1.1 µM
SMILES: Cn1c(=O)c2c(ncn2CC(=O)Nc2ccc(-c3ccccc3)nn2)n(C)c1=O [Ex 1, 2-(1,3-dimethyl-2,6-dioxo-2,3-dihydro-1H-purin-7 (6H)-yl)-N-(6-phenylpyridazin-3-yl)acetamide]
Colony count (HPAF-II cells; [1]): 564 and 493
Colony count (HPAF-II cells; [2]): 499 and 416
Colony count (HPAF-II cells; [3]): 387 and 453
Colony count (HPAF-II cells; [4]): 362 and 345
Colony count (HPAF-II cells; [5]): 260 and 201
Colony count (HPAF-II cells; [6]): 350 and 489
Colony count (HPAF-II cells; [7]): 415 and 426
Colony count (HPAF-II cells; [8]): 296
Colony count (HPAF-II cells; [9]): 200 and 150
Colony count (HPAF-II cells; [10]): 127 and 105
Colony count (PA-TU-8988T cells; [11]): 420 and 494
Colony count (PA-TU-8988T cells; [12]): 343 and 488
Colony count (PA-TU-8988T cells; [13]): 215 and 393
Colony count (PA-TU-8988T cells; [14]): 250 and 311
Colony count (PA-TU-8988T cells; [15]): 212 and 296
Colony count (PA-TU-8988T cells; [16]): 200 and 237
Colony count (PA-TU-8988T cells; [17]): 143 and 227
Colony count (PA-TU-8988T cells; [18]): 156 and 209
Colony count (PA-TU-8988T cells; [19]): 155 and 215
Colony count (PA-TU-8988T cells; [20]): 125 and 186

IC50 (PA-TU-8988T cells; Homo sapiens, PaTu 8988t): 1.01 µM
SMILES: O=C(c1cc(Cc2n[nH]c(=O)c3ccccc23)ccc1F)N1CCN(C(=O)C2CC2)CC1 [Olaparib, reference compound]
Colony count (HPAF-II cells; [1]): 522 and 507
Colony count (HPAF-II cells; [2]): 498 and 471
Colony count (HPAF-II cells; [3]): 381 and 427
Colony count (HPAF-II cells; [4]): 313 and 244
Colony count (HPAF-II cells; [5]): 237 and 206
Colony count (HPAF-II cells; [6]): 550 and 426
Colony count (HPAF-II cells; [7]): 443 and 375
Colony count (HPAF-II cells; [8]): 278 and 248
Colony count (HPAF-II cells; [9]): 239 and 172
Colony count (HPAF-II cells; [10]): 142 and 92
Colony count (PA-TU-8988T cells; [11]): 537 and 426
Colony count (PA-TU-8988T cells; [12]): 425 and 331
Colony count (PA-TU-8988T cells; [13]): 398 and 327
Colony count (PA-TU-8988T cells; [14]): 411 and 325
Colony count (PA-TU-8988T cells; [15]): 362 and 307
Colony count (PA-TU-8988T cells; [16]): 222 and 170
Colony count (PA-TU-8988T cells; [17]): 180 and 155
Colony count (PA-TU-8988T cells; [18]): 146 and 150
Colony count (PA-TU-8988T cells; [19]): 136 and 143
Colony count (PA-TU-8988T cells; [20]): 180 and 125

From patent US20230076733A1, “Combination Therapy” (AGENCY FOR SCIENCE, TECHNOLOGY AND RESEARCH, priority 2020, published 2023)
